{"source": "patent US20050048128A1", "about": "“Process for producing collagen production enhancers and use thereof” (priority 2001, published 2005)", "type_in_all_cases": "cell-based", "key": {"[1]": {"test_system": "new-born hamster fibroblasts", "assay": "Collagen production by L-ascorbic acid 2-glucoside or sodium L-ascorbate with or without royal jelly, seven-day culture (Experiment 3)", "conditions": "for Collagen production level: no additions = 100, relative value ± SD", "procedure": "Royal jelly was dissolved in D-MEM medium containing 10% (v/v) FCS to give a concentration of 200 μg/ml, and then L-ascorbic acid 2-glucoside was dissolved in the resulting medium to give a concentration of 0.2, 0.5 or 1.0 μg/ml in terms of the weight of L-ascorbic acid. As controls, L-ascorbic acid 2-glucoside was dissolved in D-MEM medium, supplemented with 10% (v/v) FCS but with no royal jelly, to give a concentration of 0.2, 0.5, or 1.0 μg/ml in terms of the weight of L-ascorbic acid. Similarly as in Experiment 1, new-born hamster fibroblasts were cultured for seven days in 6-well plates and further cultured for seven days after the supernatant in each plate was replaced with 5 ml of any of the above media, which dissolved the above-identified L-ascorbic acid 2-glucoside and royal jelly, or those prepared for use as controls. Thereafter, the collagen production level in each well was determined by the same method as in Experiment 1. As a negative control, a medium, supplemented with 200 μg/ml of royal jelly and 1 μg/ml of sodium L-ascorbate in terms of the weight of L-ascorbic acid, was added to the fibroblasts similarly as above, and the cells were cultured for seven days.\nThe fibroblasts with no addition of L-ascorbic acid 2-glucoside gave a lower collagen production level similarly as that of the control in Experiment 1, independently of the addition of royal jellies. When ascorbic acid 2-glucoside was added to give a concentration of 0.2 μg/ml or more, the collagen production level was enhanced as compared with the system with no L-ascorbic acid 2-glucoside, and the level was more enhanced by the addition of royal jellies."}, "[2]": {"test_system": "new-born hamster fibroblasts", "assay": "TGF-β production by fibroblasts, TGF-β1 Emax ImmunoAssay System (Experiment 4)", "conditions": "24 hours, no additions = 100, relative value ± SD", "procedure": "To study the mechanism of the enhancement of collagen production by royal jellies and/or L-ascorbic acids, the influence of royal jelly and/or L-ascorbic acid 2-glucoside, which had been reported to enhance the production of mRNA for collagen in fibroblasts, on the production of TGF-β was examined by the following method: • (1) Assay for TGF-β: • TGF-β was assayed on TGF-β1 Emax ImmunoAssay System, commercialized by Promega Corporation, Tokyo, Japan. • (2) Assay for TGF-β produced by fibroblasts in the presence of royal jelly and/or L-ascorbic acid 2-glucoside: • TGF-β was assayed by inoculating 1×10^4 cells/well of new-born hamster fibroblasts, prepared by the method similarly as in Experiment 1, to 96-well microplates, commercialized by Nippon Becton. […]"}, "[3]": {"test_system": "new-born hamster fibroblasts", "assay": "Collagen production by new-born hamster fibroblasts, [2,3-3H] proline taken into collagen (Experiment 1)", "conditions": "for Relative amount of collagen production: no addition = 100, relative value ± SD", "procedure": "According to conventional manner, the dorsum skin of a new-born hamster was cut and detached, and fibroblasts were isolated from the detached skin. The preparation method is outlined below: To detach the epidermis from the dermis, the debris was placed and allowed to stand at 4° C. overnight in Eagle's minimum essential medium, commercialized by Nippon Suisan Kaisha, Ltd., Tokyo, Japan, containing 0.03 mM Ca^2+, in which 500 units/ml of a dispase commercialized by Godo Shusei Co., Ltd., Tokyo, Japan, was dissolved. The detached dermis was kept at 37° C. for one hour in Dulbecco minimum essential medium (abbreviated as “D-MEM”, hereinafter), commercialized by Nippon Suisan Kaisha, Ltd., Tokyo, Japan, in which 0.25% (v/v) of a collagenase commercialized by Amano Enzyme, Aichi, Japan, was dissolved. Thereafter, the resulting cell debris of the dermis were pipetted into a cell suspension with singly dispersed cells of new-born hamster fibroblasts, followed by collecting the cells by centrifugation. The cells were suspended in phosphate-buffered saline and allowed to stand for 30 min, followed by centrifugally collecting the resulting supernatant with fibroblasts and re-suspending the cells in D-MEM supplemented with 10% (v/v) of a fetal bovine serum (abbreviated as “FCS”, hereinafter) commercialized by GIBCO Bethesda Research Laboratories, Bethesda, Md., USA, into a cell suspension for use in the following assay for collagen production level.\nThe following cells were cultured in an incubator with 5% (v/v) CO2 at 37° C. Three milliliter aliquots of the cell suspension of new-born hamster fibroblasts, prepared in the above 3, were seeded in 6-well plates to give a cell density of 4×10^5 cells/well and cultured for seven days. To D-MEM supplemented with 10% (v/v) FCS was added and dissolved therein L-ascorbic acid to give a concentration of 0.0, 0.1, 0.2, 0.5, 1.0, 2.0, 5.0, 10.0, 20.0, 50.0, 100.0, or 200.0 μg/ml. Similarly as above, either a heated royal jelly or an unheated royal jelly was added to and dissolved in D-MEM supplemented with 10% (v/v) FCS to give a concentration of 0.0, 0.1, 0.2, 0.5, 1.0, 2.0, 5.0, 10.0, 20.0, 50.0, 100.0, 200.0, or 500.0 μg/ml. Five milliliter aliquot of any one of the above media supplemented with L-ascorbic acid or the heated or unheated royal jelly was added to each well of the plates, which had been removed off the culture supenatants of fibroblast cultures, followed by culturing the cells for three days. Thereafter, the supernatant in each well was replaced with five milliliters of a fresh medium supplemented with the same concentration of L-ascorbic acid or the heated or unheated royal jelly as mentioned-above, and the cells were sequentially cultured for three days, replaced with one milliliter of a fresh medium having the same concentration of L-ascorbic acid or the heated or unheated royal jelly as mentioned-above, cultured for three hours, admixed with [2,3-^3H] proline (40 Ci/mmol) commercialized by Amersham Corp., Div. Amersham International, Ill., USA, which had been dissolved in D-MEM to give a concentration of 3 μCi/well, and further cultured overnight. All the culture media, including those supplemented with L-ascorbic acid or the heated or unheated royal jelly, used in this experiment, were filtered with a 0.22 μm filter before use.\nIn the above 4, after the fibroblasts of new-born hamster were cultured in the presence of [2,3-^3H] proline, collagen was extracted from the cells in a usual manner and quantified for [2,3-^3H] proline taken thereinto. The quantitation was carried out by the method disclosed by Seong-Jin Kim et al. in Dermatologic Surgery, Vol. 24, pp. 1,054-1,058 (1998). […]"}, "[4]": {"test_system": "new-born hamster fibroblasts", "assay": "Influence of royal jelly on the collagen production by L-ascorbic acid, significant difference test (Experiment 2)", "procedure": "Using the assay system for the collagen production level used in Experiment 1, it was studied the influence of royal jellies on the collagen production by L-ascorbic acids: New-born hamster fibroblasts, prepared similarly as the method in Experiment 1, were seeded in 6-well plates and cultured for seven days. […] In this experiment, three wells were used for each concentration. The results were evaluated whether there existed a significant difference between the count in a control system and those in the test systems with different concentrations of heated or unheated royal jelly, based on the count for the control system with no royal jelly that was detected by a liquid scintillation counter, as a control."}, "[5]": {"test_system": "new-born hamster fibroblasts", "assay": "Collagen production by L-ascorbic acid 2-glucoside or sodium L-ascorbate with or without royal jelly, seven-day culture (Experiment 3)", "conditions": "1 μg/ml L-ascorbic acid, three days, medium replaced with fresh one, three further days; data omitted"}, "[6]": {"conditions": "L-ascorbic acid 2-glucoside 0.2 μg/ml (as L-ascorbic acid) with royal jelly 200 μg/ml"}, "[7]": {"conditions": "L-ascorbic acid 2-glucoside 0.2 μg/ml (as L-ascorbic acid), no royal jelly"}}, "data": [{"molecule": "O=C1O[C@H]([C@@H](O)CO)C(O)=C1O[C@H]1O[C@H](CO)[C@@H](O)[C@H](O)[C@H]1O", "note": "[L-ascorbic acid 2-glucoside]", "values": [{"measurement": "Collagen production level", "setting": "[1]; [6]", "result": "298 ± 30"}, {"measurement": "Collagen production level", "setting": "[1]; [7]", "result": "219 ± 31"}, {"measurement": "Collagen production level", "setting": "[1]; L-ascorbic acid 2-glucoside 0.5 μg/ml (as L-ascorbic acid) with royal jelly 200 μg/ml", "result": "1440 ± 70"}, {"measurement": "Collagen production level", "setting": "[1]; L-ascorbic acid 2-glucoside 0.5 μg/ml (as L-ascorbic acid), no royal jelly", "result": "527 ± 17"}, {"measurement": "Collagen production level", "setting": "[1]; L-ascorbic acid 2-glucoside 1.0 μg/ml (as L-ascorbic acid) with royal jelly 200 μg/ml", "result": "3168 ± 318"}, {"measurement": "Collagen production level", "setting": "[1]; L-ascorbic acid 2-glucoside 1.0 μg/ml (as L-ascorbic acid), no royal jelly", "result": "2250 ± 436"}, {"measurement": "Concentration of L-ascorbic acid 2-glucoside at which the collagen production level was enhanced", "setting": "[1]; compared with the system with no L-ascorbic acid 2-glucoside", "result": "≥ 0.2", "unit": "µg/mL"}, {"measurement": "Stability dissolved in media", "setting": "[1]; culture medium, seven days, compared with L-ascorbic acid", "result": "advantageously more stable as compared with L-ascorbic acid"}, {"measurement": "Production level of TGF-β", "setting": "[2]; [6]", "result": "132 ± 12"}, {"measurement": "Production level of TGF-β", "setting": "[2]; [7]", "result": "111 ± 5"}]}, {"molecule": "O=C1O[C@H]([C@@H](O)CO)C([O-])=C1O.[Na+]", "note": "[L-ascorbic acid, Sodium L-ascorbate]", "values": [{"measurement": "Relative amount of collagen production", "setting": "[3]; L-ascorbic acid 0.1 μg/ml", "result": "95 ± 13"}, {"measurement": "Relative amount of collagen production", "setting": "[3]; L-ascorbic acid 0.2 μg/ml", "result": "118 ± 26"}, {"measurement": "Relative amount of collagen production", "setting": "[3]; L-ascorbic acid 0.5 μg/ml", "result": "210 ± 33"}, {"measurement": "Relative amount of collagen production", "setting": "[3]; L-ascorbic acid 1.0 μg/ml", "result": "482 ± 89"}, {"measurement": "Relative amount of collagen production", "setting": "[3]; L-ascorbic acid 2.0 μg/ml", "result": "1497 ± 155"}, {"measurement": "Relative amount of collagen production", "setting": "[3]; L-ascorbic acid 5.0 μg/ml", "result": "1755 ± 151"}, {"measurement": "Relative amount of collagen production", "setting": "[3]; L-ascorbic acid 10.0 μg/ml", "result": "2089 ± 160"}, {"measurement": "Relative amount of collagen production", "setting": "[3]; L-ascorbic acid 20.0 μg/ml", "result": "2456 ± 186"}, {"measurement": "Relative amount of collagen production", "setting": "[3]; L-ascorbic acid 50.0 μg/ml", "result": "2841 ± 341"}, {"measurement": "Relative amount of collagen production", "setting": "[3]; L-ascorbic acid 100.0 μg/ml", "result": "2956 ± 500"}, {"measurement": "Relative amount of collagen production", "setting": "[3]; L-ascorbic acid 200.0 μg/ml", "result": "2863 ± 456"}, {"measurement": "Minimum effective amount of L-ascorbic acid for producing collagen", "setting": "[3]; sole use", "result": 0.5, "unit": "µg/mL"}, {"measurement": "Concentration at which the level of collagen production reached a plateau level", "setting": "[3]; sole use, no significant increase above", "result": "≥ 50", "unit": "µg/mL"}, {"measurement": "Lowest concentration of L-ascorbic acid exerting the collagen-production action in combination with royal jelly", "setting": "[4]", "result": 0.2, "unit": "µg/mL"}]}, {"molecule": "Sodium L-ascorbate [L-ascorbic acid]", "values": [{"measurement": "Enhancement of collagen production, negative control", "setting": "[1]; 1 μg/ml sodium L-ascorbate (as L-ascorbic acid) with 200 μg/ml royal jelly, seven days, medium not replaced", "result": "no enhancement of collagen production"}, {"measurement": "Collagen production with medium replacement", "setting": "[5]", "result": "enhanced level of collagen production"}]}]}
